Test results reported in patent publication EP0596449A2, “Serotonin receptor antagonists for treating myocardial ischemia” (E.R. SQUIBB & SONS, INC., priority 1992, dated 1994).
Entries after “also recorded” stand apart in the source; their conditions may differ. Marks after values point to notes of the source that are not given here.

Assays:
[1] = tested on: alpha, Adrenoceptors; assay: Methoxamine-induced contraction in rat aortic rings (alpha1 blocking potency); conditions: 45 minute incubation; Figure 5A
Protocol: In order to determine the alpha1 blocking potency of cinanserin, ketanserin and LY 53857, their effect on methoxamine induced aortic constriction was determined. Male Sprague-Dawley rats were sacrificed using C02. Aortic rings (3 mm in width) were cut, denuded of endothelium by gently rolling the rings on moistened filter paper, and mounted on stainless steel hooks in 20 mL muscle chambers containing oxygenated physiological salt solution (PSS) of the following composition (in mM): 118.4 NaCI, 4.7 KCI, 1.2 MgS04, 1.2 KH2P04, 1.9 CaC12, 25.0 NaHC03, 10.1 D-glucose, and 0.01 mM Na2EDTA maintained at 37 °C. The hooks were connected to Grass FT03C transducers for recording of isometric force development. The rings were stretched to 2 g preload during the equilibration period. During equilibration the rings were periodically stimulated with 24 mM KCI to determine contractility. The effectiveness of endothelial removal was confirmed by the absence of relaxation by 1 µM acetylcholine of a contraction in response to 0.01 µM phenylephrine.
Various concentrations of the test compounds were then added to individual baths and allowed a 45 minute incubation before cumulative concentration response curves for methoxamine (1 nM-30 /1.M) were obtained. Solvent controls were run in parallel. […]

[2] = tested on: globally ischemic rat hearts; assay: Parachlorophenylalanine pretreatment of rats, then global ischemia/reperfusion of the isolated hearts; conditions: for time to contracture: parachlorophenylalanine pretreatment i.p., compared to vehicle, p<0.05, Figure 4
Protocol: (§1) To determine the effect of serotonin receptor agonists and antagonists, male Sprague-Dawley rats (450-550 g) were prepared as described below. The rats were anesthetized using 100 mg/kg sodium pentobarbital (i.p.). They were intubated and then treated with i.v. heparin (1000 U/kg). While being mechanically ventilated, their hearts were perfused in situ via retrograde cannulation of the aorta. The hearts were then excised and […] moved to a Langendorff apparatus where they were perfused with Krebs-henseleit bicarbonate buffer solution ((mM): 112 NaCI, 25 NaHC03, 5 KCI, 1.2 MgS04, 1 KH2P04, 1.25 CaC12, 2 pyruvate and 11.5 dextrose bubbled with 95% 02 - 5% C02) at a constant perfusion pressure (85 mm Hg). A water-filled latex balloon attached to a metal cannula was then inserted into the left ventricle and connected to a Statham pressure transducer for measurement of left ventricular pressure. The hearts were allowed to equilibrate for 15 min, at which time end diastolic pressure (EDP) was adjusted to 5 mm Hg and this balloon volume was maintained for the duration of the experiment. Pre-ischemia or pre-drug function, heart rate and coronary flow (extracorporeal electromagnetic flow probe) were then measured. Left ventricular developed pressure (LVDP) was calculated from the difference between left ventricular peak systolic pressure and EDP. Cardiac temperature was maintained throughout the experiment by submerging the hearts in 37 ° C buffer which was allowed to accumulate in a stoppered, heated chamber.
To determine if endogenous 5HT is mediating a pro-ischemic effect in isolated hearts, rats, prepared as described below were treated with parachlorophenylalanine. Parachlorophenylalanine depletes brain and peripheral 5HT by inhibition of tryptophan hydroxylase, the rate limiting step in 5HT synthesis. […] Male Sprague-Dawely rats (450-550 g) were injected with i.p. 105 mg/kg parachlorophenylalanine (n = 10) or its vehicle (water, n = 6) on three consecutive days. On the fourth day, the rats were anesthetized with 100 mg/kg sodium pentobarbital. The hearts were then excised and moved to an isolated heart apparatus as described above. The hearts were then subjected to 25 minutes to global ischemia and 30 minutes of reperfusion. Time to contracture, recovery of contractile function, coronary flow and cumulative LDH release were measured as described above.

[3] = tested on: globally ischemic rat hearts; assay: Global ischemia (25 min) and reperfusion (30 min) in isolated perfused rat hearts, 5HT2 antagonists; conditions: for EC25: Rattus norvegicus, drug given 10 minutes before global ischemia, read-out: EC25 (concentration which increased the time to contracture 25% above vehicle group values)
Protocol: as §1
The model of global ischemia in isolated rat hearts was designed such that any protective effects observed are generally due to a direct cardioprotective effect and not to effects on cornonary or peripheral vascular tone. Also, because the hearts are perfused with an oxygenated buffer solution, platelets or the normal components of an inflammatory response are probably not important mediators of the ischemic/reperfusion injury observed in this model. […] Agents which exert their protective effects either through their effects on the peripheral or coronary vasculature such as nitrates or agents which act on blood or act on some component of the inflammatory response such as thromboxane A2 receptor antagonists are generally ineffective in this model.
The hearts were divided into the following groups: 1. Vehicle (0.1% DMSO) treatment beginning 10 minutes before the onset of ischemia (n = 8). 2. 0.3-10 µM ketanserin treatment beginning 10 minutes before the onset of ischemia (n = 4-5 per group). 3. 10 µM ketanserin given only during reperfusion (n = 4). 4. 0.1-10 µM cinanserin treatment beginning 10 minutes before global ischemia (n = 4-10). 5. 1-10 µM LY 53857 treatment beginning 10 minutes before the onset of ischemia (n = 4 per group). After 10 minutes of vehicle or drug pretreatment, the hearts were subjected to 25 minutes of total global ischemia which was initiated by shutting off the perfusate flow. Reperfusion was begun (without drug except in the case of group 3 above) and allowed to continue for 30 minutes. At this time, final measurements of EDP, LVDP and coronary flow were obtained. Cumulative LDH relase was measured in the reperfusate and was used as the index of cellular and membrane viability. In all hearts, the time to contracture during ischemia was measured and used as an index of cardioprotection during ischemia. Time to contracture is defined as the time (minutes) necessary for the first 5 mm Hg increase in EDP to occur during global ischemia. The data were expressed as the percent change in time to contracture from vehicle.

[4] = tested on: globally ischemic, isolated rat hearts; assay: Effect of 5HT, alone or with 5HT2 antagonist, on time to contracture and pre-ischemic function in isolated rat hearts; conditions: for Coronary Flow / HR / LVDP: pre-ischemic
Protocol: To determine the effect of serotonin receptor agonists and antagonists, male Sprague-Dawley rats (450-550 g) were prepared as described below. The rats were anesthetized using 100 mg/kg sodium pentobarbital (i.p.). They were intubated and then treated with i.v. heparin (1000 U/kg). While being mechanically ventilated, their hearts were perfused in situ via retrograde cannulation of the aorta. […] A water-filled latex balloon attached to a metal cannula was then inserted into the left ventricle and connected to a Statham pressure transducer for measurement of left ventricular pressure. […] Pre-ischemia or pre-drug function, heart rate and coronary flow (extracorporeal electromagnetic flow probe) were then measured. Left ventricular developed pressure (LVDP) was calculated from the difference between left ventricular peak systolic pressure and EDP. Cardiac temperature was maintained throughout the experiment by submerging the hearts in 37 ° C buffer which was allowed to accumulate in a stoppered, heated chamber. In another series of hearts, the effect of 5HT on the severity of ischemia was determined. […] Vehicle (0.1% DMSO) given 10 minutes before ischemia (n = 5). The hearts were subjected to global ischemia as described above and time to contracture determined. Reperfusion function and LDH release were not determined in this group.

[5] = i.p. 105 mg/kg on three consecutive days, 30 Min. Post-Ischemia
[6] = i.p. 105 mg/kg on three consecutive days, Pre-Ischemia
[7] = 30 μM 5HT + 1 μM Cinanserin, Post-Drug
[8] = 30 μM 5HT + 1 μM Cinanserin, Pre-Drug

COc1cc2nc(N3CCN(C(=O)c4ccco4)CC3)nc(N)c2cc1OC [prazosin]
concentration from which the methoxamine-tension curve was shifted to the right [1]: 1 nM

N[C@@H](Cc1ccc(Cl)cc1)C(=O)O (racemic) [PCPA, parachlorophenylalanine]
Coronary Flow [2, 5]: 18±2^b mL/min/g | HR [2, 5]: 275±8^b beats/min | LVDP [2, 5]: 60±7^a,b mmHg | LDH Release ([2]; i.p. 105 mg/kg on three consecutive days, 30 Min. Post-Ischemia (during reperfusion)): 15±2^b u/g | Coronary Flow [2, 6]: 18 ± 1 mL/min/g | HR [2, 6]: 271±8 beats/min | LVDP [2, 6]: 128±11 mmHg | time to contracture ([2]; listed as Parachlorophenylalanine): significantly increased time to contracture | time to contracture ([2]; listed as parachlorophenylalanine): significantly incareased the time to contracture

CC(O)C(C)OC(=O)C1CC2c3cccc4c3c(cn4C(C)C)CC2N(C)C1 (stereo not drawn) [LY 53857]
Coronary Flow ([3]; 1 µM, 30 Min Post-Reperfusion): 12±1^a mL/min/g | HR ([3]; 1 µM, 30 Min Post-Reperfusion): 230±25 beats/min | LVDP ([3]; 1 µM, 30 Min Post-Reperfusion): 23±5^a mmHg | Coronary Flow ([3]; 1 µM, Pre-Ischemia, Post-Drug): 15 ± 1 mL/min/g | HR ([3]; 1 µM, Pre-Ischemia, Post-Drug): 257±6 beats/min | LVDP ([3]; 1 µM, Pre-Ischemia, Post-Drug): 132±6 mmHg | Coronary Flow ([3]; 1 µM, Pre-Ischemia, Pre-Drug): 17 ± 1 mL/min/g | HR ([3]; 1 µM, Pre-Ischemia, Pre-Drug): 270±5 beats/min | LVDP ([3]; 1 µM, Pre-Ischemia, Pre-Drug): 141±4 mmHg | Coronary Flow ([3]; 3 µM, 30 Min Post-Reperfusion): 13±1^a mL/min/g | HR ([3]; 3 µM, 30 Min Post-Reperfusion): 240±13 beats/min | LVDP ([3]; 3 µM, 30 Min Post-Reperfusion): 73±7^a,b mmHg | Coronary Flow ([3]; 3 µM, Pre-Ischemia, Post-Drug): 17 ± 1 mL/min/g | HR ([3]; 3 µM, Pre-Ischemia, Post-Drug): 265±8 beats/min | LVDP ([3]; 3 µM, Pre-Ischemia, Post-Drug): 144±6 mmHg | Coronary Flow ([3]; 3 µM, Pre-Ischemia, Pre-Drug): 17 ± 1 mL/min/g | HR ([3]; 3 µM, Pre-Ischemia, Pre-Drug): 274±5 beats/min | LVDP ([3]; 3 µM, Pre-Ischemia, Pre-Drug): 148±6 mmHg | Coronary Flow ([3]; 10 µM, 30 Min Post-Reperfusion): 15 ± 3 mL/min/g | HR ([3]; 10 µM, 30 Min Post-Reperfusion): 250±4 beats/min | LVDP ([3]; 10 µM, 30 Min Post-Reperfusion): 86±6^a,b mmHg | Coronary Flow ([3]; 10 µM, Pre-Ischemia, Post-Drug): 21 ± 3 mL/min/g | HR ([3]; 10 µM, Pre-Ischemia, Post-Drug): 252±12^a beats/min | LVDP ([3]; 10 µM, Pre-Ischemia, Post-Drug): 123±5 mmHg | Coronary Flow ([3]; 10 µM, Pre-Ischemia, Pre-Drug): 20 ± 3 mL/min/g | HR ([3]; 10 µM, Pre-Ischemia, Pre-Drug): 288±10 beats/min | LVDP ([3]; 10 µM, Pre-Ischemia, Pre-Drug): 130±5 mmHg | EC25 [3]: 6.1 µM | reperfusion LDH release ([3]; at 3 and 10 µM concentrations, Figure 2C): significantly reduced it

CN(C)CCCSc1ccccc1NC(=O)/C=C/c1ccccc1 [Cinanserin, cinanserin]
Coronary Flow [4, 7]: 18 ± 1 mL/min/g | HR [4, 7]: 340±11^a,b beats/min | LVDP [4, 7]: 122±5 mmHg | Coronary Flow [4, 8]: 19 ± 1 mL/min/g | HR [4, 8]: 297±9 beats/min | LVDP [4, 8]: 139±7 mmHg | effect on the pro-ischemic effect of 5HT (time to contracture) ([4]; 30 µM 5HT plus antagonist, both given 10 minutes before ischemia, Figure 3): completely abolished this pro-ischemic effect; also recorded: abolished the pro-ischemic effect of serotonin | reperfusion LDH release ([3]; 1-10 µM, compared to vehicle, Figure 2A): Significant reductions in LDH | EC25 [3]: 1.6 µM

NCCc1c[nH]c2ccc(O)cc12 [5HT, serotonin]
Coronary Flow ([4]; 1 μM 5HT, Post-Drug): 16 ± 1 mL/min/g | HR ([4]; 1 μM 5HT, Post-Drug): 276±5 beats/min | LVDP ([4]; 1 μM 5HT, Post-Drug): 141±3 mmHg | Coronary Flow ([4]; 1 μM 5HT, Pre-Drug): 16 ± 1 mL/min/g | HR ([4]; 1 μM 5HT, Pre-Drug): 273±7 beats/min | LVDP ([4]; 1 μM 5HT, Pre-Drug): 145±4 mmHg | Coronary Flow ([4]; 10 μM 5HT, Post-Drug): 20 ± 2 mL/min/g | HR ([4]; 10 μM 5HT, Post-Drug): 294±11 beats/min | LVDP ([4]; 10 μM 5HT, Post-Drug): 132±7 mmHg | Coronary Flow ([4]; 10 μM 5HT, Pre-Drug): 19 ± 2 mL/min/g | HR ([4]; 10 μM 5HT, Pre-Drug): 300±7 beats/min | LVDP ([4]; 10 μM 5HT, Pre-Drug): 135±4 mmHg | Coronary Flow ([4]; 30 μM 5HT, Post-Drug): 14 ± 1 mL/min/g | HR ([4]; 30 μM 5HT, Post-Drug): 319±20 beats/min | LVDP ([4]; 30 μM 5HT, Post-Drug): 103±11 mmHg | Coronary Flow ([4]; 30 μM 5HT, Pre-Drug): 16 ± 1 mL/min/g | HR ([4]; 30 μM 5HT, Pre-Drug): 281±15 beats/min | LVDP ([4]; 30 μM 5HT, Pre-Drug): 117±5 mmHg | Coronary Flow ([4]; 100 μM 5HT, Post-Drug): 15 ± 3 mL/min/g | HR ([4]; 100 μM 5HT, Post-Drug): 369±19^a,b beats/min | LVDP ([4]; 100 μM 5HT, Post-Drug): 88±8^a,b mmHg | Coronary Flow ([4]; 100 μM 5HT, Pre-Drug): 16 ± 2 mL/min/g | HR ([4]; 100 μM 5HT, Pre-Drug): 298±10 beats/min | LVDP ([4]; 100 μM 5HT, Pre-Drug): 121±8 mmHg | effect on the severity of ischemia (time to contracture) ([4]; 1 and 10 µM concentrations): without any measurable effect | time to contracture ([4]; at 30 and 100µM, compared to vehicle, p<0.05, Figure 3): significantly reduced time to contracture | time to contracture ([4]; at >30 µM): significantly decrease time to contracture
